Entries after “also recorded” stand apart in the source; their conditions may differ. Counter-ions that a name gives are not always drawn.

One data set relates to RTT spheroids. Kind of data set: FLIPR spontaneous calcium oscillation assay of iPSC-derived cortical brain spheroids (SMART library screen). The data set is classed as cell-based, human. To be noted: for outcome of the SMART library screen (multivariant analysis): 298-compound SMART library on WT and RTT matured spheroids; for rescue or reversal of the RTT disease state, multi parametric plot of spheroid calcium oscillation activity / effect of the drugs on the condition (spontaneous calcium oscillations): 1 micro molar; for rescue or reversal of the RTT disease state, multi parametric plot of spheroid calcium oscillation activity: FIG. 3 and FIG. 4, compared with WT spheroids; for effect of the drugs on the condition (spontaneous calcium oscillations): WT and RTT spheroids, FIG. 4. An excerpt: In one embodiment, the present disclosure provides human induced pluripotent stem cells iPScs that are subsequently differentiated into human cortical neurons comprising neurons and astrocytes in approximately a 50:50 ratio. The ratio can be adjusted on a case by case basis depending on the particular disease of interest from 1 to 99% either neurons or astrocytes. The 3D spheroids are comprised of approximately 50:50 neurons to astrocytes ratio +1-10%. The methods of differentiating and forming 3 dimensional spheroids and functional testing with FLIPR optical techniques is described in copending patent application No. 62/532667. In the examples in this invention we use a disease model cell line which are known to carry genes responsible for Rett syndrome.
In the present disclosure both Wild Type (WT) and Rett Disease (RTT) cortical brain human tissue spheroids were prepared for the purpose of high throughput screening to identify therapeutic compounds that can modulate the brain activity in an attempt to revert or rescue the disease state back to near normal activity or homeostasis. For example, the cell lines employed (control or “WT” and disease “RTT”) may be from a family without and with the Rett disease phenotype.
The method disclosed herein may, in one embodiment, include manufacturing 3D spheroids in 384 well round bottom microtiter plates, see, e.g. U.S. patent application No. 62/532,667, the disclosure of which is incorporated herein. […] In the present disclosure, 6 to 14 weeks of maturation is a maturation range for testing, e.g., 8 to 10 weeks of maturation.
The oscillations being measured are from calcium flux moving into and out of the cells at ambient conditions. The oscillations are spontaneous and not generated by an external source. The measurements are conducted in real time and the data captured by using a technique called FLIPR that is well known in the prior art. […] When analyzing the data, it is important to understand that multiple factors contribute to the signal being recorded by the FLIPR software. Therefore, in the present disclosure 7 parameters are recorded to determine if the data generated from the spheroid is meaningful. The parameters measured are, e.g., peak count, peak width, average peak spacing, peak spacing standard deviation, peak decay time, peak rise time, and/or peak amplitude.
In the present disclosure, the SMART library that contained 298 compounds was used on both WT and RTT matured spheroids over several weeks and the FLIPR data collected and analyzed for potential therapeutic efficacy. The SMART (Selected Molecular Agents for Rett Therapy) library of compounds is well vetted by modern day bioinformatics methods, tightly focused on Rett syndrome and its biological causes. The library is currently housed at the University of Illinois-Chicago. […] With the goals in mind to save both time and resources and accelerate drug discovery for Rett syndrome, the compounds in the SMART library are readily available to investigators working on Rett syndrome research.

Another data set has as its system humans. To be noted: 1950s and 1960s; cited from earlier work.
The next data set has as its system pregnant mice. To be noted: given to pregnant mice; cited from earlier work.
Another data set has as its system pregnant rats. The following applies: given to pregnant rats; cited from earlier work.

Consider `COc1cc(N)c(Cl)cc1C(=O)NC1CCN(Cc2ccccc2)CC1` [Clebopride Mal ate], for which the “outcome of the SMART library screen (multivariant analysis)” value (from here on “outcome of the SMART library screen”) in the data set with RTT spheroids is given as “therapeutics of interest”. Same read-out and setting: with `CN1CCC[C@@H]1Cc1c[nH]c2ccc(CCS(=O)(=O)c3ccccc3)cc12` [Eletriptan HBr Salt] the entry was “therapeutics of interest”. In the case of `O=C(CCCCCCC(=O)Nc1ccccc1)NO` [Vorinostat], the “rescue or reversal of the RTT disease state, multi parametric plot of spheroid calcium oscillation activity” value in the data set on RTT spheroids (RTT spheroids) was “no effect to rescue or reverse the spontaneous calcium oscillations”. Also, the “effect of the drugs on the condition (spontaneous calcium oscillations)” value with RTT spheroids is recorded as “made the condition worse”. As for `O=C1CCC(N2C(=O)c3ccccc3C2=O)C(=O)N1` (stereo not shown) [thalidomide], the results for the birth defects result in the data set with humans, with pregnant mice and with pregnant rats were “caused an international epidemic of birth defects”, “does not cause birth defects” and “does not cause birth defects”, respectively. With `Oc1cc(O)c2c(c1)O[C@H](c1cc(O)c(O)c(O)c1)[C@H](O)C2` [Epigallocatechin], in the data set on RTT spheroids (RTT spheroids), the “rescue or reversal of the RTT disease state, multi parametric plot of spheroid calcium oscillation activity” value is “no effect to rescue or reverse the spontaneous calcium oscillations”. Besides, the “effect of the drugs on the condition (spontaneous calcium oscillations)” value in the data set on RTT spheroids is “made the condition worse”. Take `CN(C)CCCOc1nn(Cc2ccccc2)c2ccccc12.Cl` [Benzydiamine Hydrochloride]: the “outcome of the SMART library screen” value in the data set with RTT spheroids is recorded as “therapeutics of interest”. Take `O=c1n(CCCN2CCN(c3cccc(Cl)c3)CC2)nc2ccccn12` [Trazodone, Trazodone (Beneficat)]: the “outcome of the SMART library screen” value with RTT spheroids was “therapeutics of interest”. With `NCC(CC(=O)O)c1ccc(Cl)cc1` (stereo not shown) [Baclofen], the “outcome of the SMART library screen” value with RTT spheroids is “therapeutics of interest”. Turning to `O=C1Nc2cc(Br)ccc2/C1=C1/Nc2ccccc2/C1=N\O` [Bromoindirubin-3-oxime], the “outcome of the SMART library screen” value in the data set on RTT spheroids was “therapeutics of interest”. As to `CCOC(=O)C1=C[C@]2(CC)CCCN3CCc4c(n1c1ccccc41)[C@@H]32` [Vinpocetine], in the data set with RTT spheroids, the “outcome of the SMART library screen” value is on record as “therapeutics of interest”. Take `Cc1nccn1CC1CCc2c(c3ccccc3n2C)C1=O` (stereo not shown) [Ondansetron]: in the data set on RTT spheroids, the “outcome of the SMART library screen” value is “therapeutics of interest”. On to `OC(CCN1CCCCC1)(c1ccccc1)C1CCCCC1` (stereo not shown) [Benzhexol Hydrochloride], for which the “outcome of the SMART library screen” value in the data set on RTT spheroids is on record as “therapeutics of interest”.

For the compound `CC(C)COc1ccc(CNC(=O)N(Cc2ccc(F)cc2)C2CCN(C)CC2)cc1` [Pinmavanserin], the “outcome of the SMART library screen” value in the data set with RTT spheroids is listed as “therapeutics of interest”. The same measure, in the same setting: with `CC1Nc2ccc(Cl)cc2S(=O)(=O)N1` (stereo not shown) [IDRA-21] the entry was “therapeutics of interest”. Same read-out and setting: with `CNCC[C@@H](Oc1ccccc1C)c1ccccc1` [Atomoxetine, Atomoxetine (Tomoxetine)] the entry was “therapeutics of interest”. For the compound `CC(C)n1c(=O)n(C(=O)NC2CC3CCC(C2)N3C)c2ccccc21` (stereo not shown) [BIMU-8], in the data set on RTT spheroids, the “outcome of the SMART library screen” value is “therapeutics of interest”. Also, in the data set with RTT spheroids (RTT spheroids), the “rescue or reversal of the RTT disease state, multi parametric plot of spheroid calcium oscillation activity” value is listed as “significant effect on reversing or rescuing the RTT disease state”. Besides, the “rescue of spontaneous calcium peak frequency and amplitude behavior to the WT state” value in the data set with RTT spheroids (RTT spheroids, 2-week exposure time, FIG. 5) was “rescuing the oscillation activity back to WT normal behavior; also recorded: nearly rescued the WT state”. `COc1cc(C(C)=O)ccc1OCCCN1CCC(c2noc3cc(F)ccc23)CC1` [Iloperidone]: the “outcome of the SMART library screen” value in the data set on RTT spheroids was “therapeutics of interest”. Same read-out and setting: with `OC(CCN1CCCCC1)(c1ccccc1)C1CC2C=CC1C2` (stereo not shown) [Biperiden] the entry was “therapeutics of interest”. Regarding `CC(=O)Nc1nnc(S(N)(=O)=O)s1` [Acetazolamide], the “outcome of the SMART library screen” value in the data set with RTT spheroids was “therapeutics of interest”.

These data come from patent US12638439B2, “Method of using human spheroids for drug discovery” (AxoSim, Inc., priority 2019, dated 2026).
